pIC50: −log10 of the molar value. Where two headings read alike, the source gives them in different places.
Key:
[1] = system: HaCAT human skin keratynocytes
Procedure: (§3) The following cell lines were used: human prostate cancer cells from metastases to the brain DU145 (ATCC® HTB-81™, Manassas, Virginia); healthy human prostate epithelial cell line as a control (PNT2; Sigma-Aldrich, Darmstadt, Germany); human melanoma Hs 294T (ATCC® HTB-140™, Manassas, Virginia); human epidermal keratinocytes (HaCaT) HEK001 (ATCC® CRL-2404™, Manassas, Virginia); and normal human skin fibroblasts BJ (ATCC® CRL2522™) as controls. The cells were cultured in 37 °C with humidified atmosphere enriched with 5% CO2 in appropriate cell culture media: DMEM F12Ham (Sigma-Aldrich, Darmstadt, Germany) + 5% FBS (Thermo Fisher Scientific; Gibco; Waltham, MA, USA); RPMI-1640 (Sigma-Aldrich, Darmstadt, Germany) + 10% FBS (Thermo Fisher Scientific; Gibco; Waltham, MA, USA); DMEM high glucose (Sigma-Aldrich) + 10% FBS (Thermo Fisher Scientific; Gibco; Waltham, MA, USA); DMEM low glucose (Sigma-Aldrich, Darmstadt, Germany) + 10% FBS (Thermo Fisher Scientific; Gibco; Waltham, MA, USA). All media contained a penicillin/streptomycin (Sigma-Aldrich, Darmstadt, Germany) cocktail.
(§4) For the determination of the cytotoxic effect of tested compounds, normal (control) and cancer cell lines cells were tested at a concentration of 2.5 × 10^4 cells cm^–^2 in appropriate culture medium into 96 well microplates (VWR, Radnor, PA, USA). Cells were preincubated with four different concentrations of tested compounds: 0.5, 0.25, 0.125 and 0.0625 mg mL^–1 for 24 h, 72 h and 120 h in cell incubator. After the incubation, MTT labelling reagent (final concentration 0.5 mg mL^–1) and solubilizing solution were added according to the protocol. The samples absorbance was measured using a microplate reader (Multiscan FC; Thermo Fisher Scientific, Waltham, MA, USA) by 570 nm wavelength, 620 nm for reference.

[2] = system: Jurkat (Human T-cell leukemia); design: method as in doi:10.1002/app.47192, PMID 29904629; conditions: cited from earlier work
[3] = system: normal (control) and cancer cell lines; test: MTT cytotoxicity assay, summary statements over the tested cell lines; assay type: cell-based, human; conditions: data not shown
HTB140 cells [4] = test: Nuclei roundness by image analysis, HTB140; assay type: cell-based, human; conditions: 0.0625 mg mL^–1; for nuclei circularity index: HTB140, after the first 24 h
Procedure: (§1) Cellular studies 12-well plates were used, cell density 3 × 10^5 per well. After 24 h and 48 h of incubation with tested compounds (0.0625 mg mL^–1), the samples were fixed according to standard protocol. Tubulin (green; AlexaFluor-488 mouse anti-β-tubulin IgG; BD Biosciences, San Jose, CA, USA, Pharminogen; cat. 558605), vimentin (infra-red; I: rabbit-anti-vimentin IgG; GeneTex, Irvine, CA, USA; GTX100619; II: chicken-anti-rabbit-AlexaFluor647 IgG; ThermoFisher, Waltham, MA, USA) and counterstained nuclei (blue; Hoechst 33258; Sigma-Aldrich, Darmstadt, Germany) and F-actin (red; AlexaFluor546-phalloidin; ThermoFisher, Waltham, MA, USA). Next, the samples were washed 5 times with deionized water and prepared for imaging with Fluorescent Mounting Medium (Dako Omnis, Agilent, Santa Clara, CA, USA). Microscopic measurements and observations were carried out with the use of fluorescent techniques performed on Zeiss Axio Observer Z.1 microscope with LSM 710 module (Carl Zeiss Microscopy GmbH Carl-Zeiss-Promenade 10, 07745 Jena, Germany). Image acquisition, processing, deconvolution and analysis were performed using Zeiss ZEN Black software ver. 8.1.0.484 and FluoRender 2.21.0. An oil immersion 40×/NA:1.4 lens was used for observations. Parameters used for acquisition of cell morphology were: nucleus—blue channel (405 nm); microtubular network—green channel (488 nm); Actin—red channel (546 nm); vimentin—far red channel (647 nm).

DU145 cells [5] = test: Nuclei roundness by image analysis, DU145; assay type: cell-based, human; conditions: DU145, after 48 h, 0.0625 mg mL^–1
Procedure: as §1, with “Parameters used for acquisition of cell morphology were: nucleus—blue channel (405 nm); microtubular network—green channel (488 nm); Actin—red channel (546 nm); vimentin—far red channel (647 nm).” left out

DU145 cells [6] = test: Transmigration assay (Boyden's chamber), DU145; assay type: cell-based, human; conditions: DU145, 96 h, 0.0625 mg mL^–1, transmigration/proliferation ratio relative to sugar control
Procedure: (§2) Transmigration assay was performed using 24-well glass-bottom plate (Eppendorf) containing microporous membranes in Boyden’s chamber (Corning; pore diameter: 8 μm; membrane diameter: 6.5 mm). Native DU145 and HTB140 cells were seeded at density of 3 × 10^5 cells per membrane with tested compounds (0.0625 mg mL^–1) and left for 48 and 96 h for transmigration. The transmigrating cells were fixed with 3.7% formaldehyde and counted. The result is presented as a reference to the rate of cell proliferation in the corresponding compound.

HTB140 cells [7] = test: Transmigration assay (Boyden's chamber), HTB140; assay type: cell-based, human; conditions: HTB140, 96 h, 0.0625 mg mL^–1, relative to sugar control
Procedure: as §2

[8] = system: DU145 prostate cancer cells; test: MTT cytotoxicity assay, DU145
Procedure: as §3, §4

[9] = system: HTB140 human skin melanoma cells; test: MTT cytotoxicity assay, HTB140
Procedure: as §3, §4

[10] = system: HSF human skin fibroblasts; test: MTT cytotoxicity assay, HSF (control); conditions: 72 h
Procedure: as §3, §4

[11] = system: PNT2 prostate epithelium cells; test: MTT cytotoxicity assay, PNT2 (control)
Procedure: as §3, §4

[12] = system: HaCAT human skin keratynocytes; test: MTT cytotoxicity assay, HaCAT (control); conditions: 72 h
Procedure: as §3, §4

[13] = system: HSF human skin fibroblasts
Procedure: as §3, §4

mixture of (3R)-hydroxynonanoate glucose esters and (3R)-hydroxyheptanoate glucose esters [mPHN-glu]
pIC50 [1]: 2.85

octanoic acid glucose ester
pIC50 [2]: 3.92

OC[C@H]1OC(O)[C@H](O)[C@@H](O)[C@@H]1O (stereo partly drawn) [glu, α-D-glucopiranose, reference compound]
cytotoxicity in the MTT test (in words) [3]: low cytotoxicity | nuclei circularity index (HTB140 cells [4]): smallest round nuclei

O=C[C@H](O)[C@@H](O)[C@@H](O)[C@H](O)CO [gal, β-d-galactopyranose, reference compound]
cytotoxicity in the MTT test (in words) [3]: low cytotoxicity | nuclei circularity index (HTB140 cells [4]): smallest round nuclei

lactose nonanoic ester [C9-lac]
change of nuclei roundness (DU145 cells [5]): decrease in nucleus roundness index | nuclei circularity index (HTB140 cells [4]): highest circularity index | change of nuclei shape (decrease in roundness index) (HTB140 cells [4]; HTB140, after the next 24 h (48 h)): biggest change | reduction of transmigration (DU145 cells [6]): 25% | decrease of transmigration (HTB140 cells [7]): 16% | pIC50 ([8]; DU145, 24 h): 3.04 | pIC50 ([8]; DU145, 72 h): 3.08 | pIC50 ([8]; DU145, 120 h): 3.34 | pIC50 ([8]; read-out: Cytotoxicity of SFAE determined by MTT assay (IC50), Supplementary Table 2, DU145, 72 h, standard deviation on line d below): 3.08 | pIC50 ([8]; read-out: Cytotoxicity of SFAE determined by MTT assay (IC50), Supplementary Table 2, DU145, 120 h, standard deviation on line d below): 3.34 | pIC50 ([9]; HTB140, 24 h): 3.21 | pIC50 ([9]; HTB140, 72 h): 3.04 | pIC50 ([9]; HTB140, 120 h): 3.09 | pIC50 ([9]; read-out: Cytotoxicity of SFAE determined by MTT assay (IC50), Supplementary Table 2, HTB 140, 24 h, standard deviation on line d below): 3.21 | pIC50 ([9]; read-out: Cytotoxicity of SFAE determined by MTT assay (IC50), Supplementary Table 2, HTB 140, 120 h, standard deviation on line d below): 3.09 | pIC50 [10]: 3.04 | pIC50 ([11]; PNT2, 24 h): 2.77 | pIC50 ([11]; PNT2, 72 h): 3.04 | pIC50 ([11]; PNT2, 120 h): 2.76 | pIC50 ([11]; read-out: Cytotoxicity of SFAE determined by MTT assay (IC50), Supplementary Table 2, PNT2, 24 h, standard deviation on line d below): 2.77 | pIC50 ([11]; read-out: Cytotoxicity of SFAE determined by MTT assay (IC50), Supplementary Table 2, PNT2, 120 h, standard deviation on line d below): 2.76 | pIC50 [12]: 3.04

galactose nonanoic ester [C9-gal]
pIC50 [1]: 2.81 | pIC50 [13]: 2.81 | pIC50 ([8]; DU145, 24 h): 2.81 | pIC50 ([8]; DU145, 72 h): 3.11 | pIC50 ([8]; DU145, 120 h): 2.81 | pIC50 ([9]; HTB140, 24 h): 2.78 | pIC50 ([9]; HTB140, 72 h): 2.81 | pIC50 ([9]; HTB140, 120 h): 2.81 | pIC50 [10]: 2.81 | pIC50 ([11]; PNT2, 24 h): 2.62 | pIC50 ([11]; PNT2, 72 h): 2.91 | pIC50 ([11]; PNT2, 120 h): 2.63 | pIC50 [12]: 2.81

— paper PMC8268987, “In Search of Effective Anticancer Agents—Novel Sugar Esters Based on Polyhydroxyalkanoate Monomers” (International Journal of Molecular Sciences, 2021)
